Experimental findings from US20060281700A1, “SYNERGISTIC MODULATION OF FLT3 KINASE USING AMINOPYRIMIDINES KINASE MODULATORS” (priority 2005, published 2006) are described below.

One data set relates to MV4-11 tumor xenografts. The experiment in a line: MV4-11 human tumor xenograft regression model in nude mice. The class given is in vivo. The protocol:
Female athymic nude mice (CD-1, nu/nu, 9-10 weeks old) were obtained from Charles River Laboratories (Wilmington, Mass.) and were maintained according to NIH standards. All mice were group housed (5 mice/cage) under clean-room conditions in sterile micro-isolator cages on a 12-hour light/dark cycle in a room maintained at 21-22° C. and 40-50% humidity. Mice were fed irradiated standard rodent diet and water ad libitum. All animals were housed in a Laboratory Animal Medicine facility that is fully accredited by the American Association for Assessment and Accreditation of Laboratory Animal Care (AAALAC). […]
The time course of the inhibitory effects of FLT3 inhibitor compounds on the growth of MV4-11 tumors is illustrated in FIG. 1. […] Percent inhibition (% I) of tumor growth was calculated versus tumor growth in the vehicle-treated Control group on the last study day. Statistical significance versus Control was determined by Analysis of Variance (ANOVA) followed by Dunnett's t-test: *p<0.05; **p<0.01.
(See FIG. 2). […] Percent Inhibition was calculated versus the mean tumor weight in the vehicle-treated control group. Statistical significance versus Control was determined by ANOVA followed by Dunnett's t-test: **p<0.01. […]

Data set [1] is described as follows: Tolerability in MV4-11 tumor-bearing nude mice (body weight, overt clinical signs). To be noted: either agent alone or in combination. The protocol:
Female athymic nude mice weighing no less than 20-21 grams were inoculated subcutaneously in the left inguinal region of the thigh with 5×10^6 tumor cells in a delivery volume of 0.2 mL. For regression studies, the tumors were allowed to grow to a pre-determined size prior to initiation of dosing. […] Mice were dosed orally by gavage with vehicle (control group) or compound at various doses twice-daily (b.i.d.) during the week and once-daily (q.d.) on weekends. […] If tumors in the control mice reached ˜10% of body weight (˜2.0 grams), the study was to be terminated. […] During the study, tumor growth was measured three times-a-week (M, W, F) using electronic Vernier calipers. Tumor volume (mm^3) was calculated using the formula […], where L=length (mm) and W=width (shortest distance in mm) of the tumor. Body weight was measured three times-a-week and a loss of body weight >10% was used as an indication of lack of compound tolerability. […]
Female athymic nude mice weighing no less than 20-21 grams were inoculated subcutaneously in the left inguinal region of the thigh with 5×10^6 tumor cells in a delivery volume of 0.2 mL. For regression studies, the tumors were allowed to grow to a pre-determined size prior to initiation of dosing. […] During the study, tumor growth was measured three times-a-week (M, W, F) using electronic Vernier calipers. […]

With `Cn1cncc1C(N)(c1ccc(Cl)cc1)c1ccc2c(c1)c(-c1cccc(Cl)c1)cc(=O)n2C` (single isomer, unassigned; (+)) [Tipifarnib, (+)-6-[amino(4-chlorophenyl)(1-methyl-1H-imidazol-5-yl)methyl]-4-(3-chlorophenyl)-1-methyl-2(1H)-quinolinone], the “inhibition of tumor volume vs vehicle-treated control group” value with MV4-11 tumor xenografts (Day 16, Compound D 25 mg/kg bid, Tipifarnib 50 mg/kg, alone or in combination) is recorded as “ineffective”. Further, the “tumor growth vs Vehicle-treated group” value in the data set with MV4-11 tumor xenografts (Tipifarnib 50 mg/kg single agent, nine days) was “ineffective”. In addition, the overt toxicity entry in data set [1] (9-day treatment) and in data set [1] (16-day treatment) was “No overt toxicity” throughout.
